“Also recorded” adds a separate entry of the source.
What was measured:
[1] = Metabolic stability in human liver microsomes; type: in vitro ADME
[2] = test system: Caco-2; assay: Caco-2 permeability; type: in vitro ADME; settings: result in words
[3] = test system: cytochromes P450 (CYPs); assay: Inhibition of human cytochromes P450, overall; settings: result in words

## CNCCCc1cncc(CCc2cc(C)cc(N)n2)c1 [Compound 14j, 4-Methyl-6-(2-(5-(3-(methylamino)propyl)pyridin-3-yl)ethyl)pyridin-2-amine]
[1]; 1 μM concentration
  half-life in human liver microsomes: > 1 h
[1]; for at least 60 min, result in words
  human microsome CYP metabolism: little or no
[1]; result in words
  metabolic stability in human liver microsomes: good
[2]
  Caco-2 permeability: little to no; also recorded: little or no
[3]
  binding to / inhibition of cytochromes P450 (CYPs): minimal; also recorded: very poor
